From publication PMC10772524 (Haematologica, 2023)

Legend:
[1] = test system: peripheral T-cell lymphoma (PTCL); conditions: PTCL patients; cited from earlier work
[2] = test system: patients with relapsed/refractory T-cell lymphoma; assay: Safety and tolerability of tenalisib plus romidepsin; format: in vivo, human; conditions: for Patients with three or more drug interruptions: during the combination treatment; for Patients with drug interruptions / Patients with dose reductions: overall, during combination treatment; for Patients with drug interruptions: PTCL and CTCL groups
[3] = Plasma pharmacokinetics of tenalisib, IN0385 and romidepsin; format: in vivo, human; conditions: oral, all three cohorts
CYP3A4 = conditions: also substrates for CYP3A4; ref not given; cited from earlier work
patients = conditions: cited from earlier work

Structure (SMILES)	CR rate with monotherapy [1] [%]	Patients with three or more drug interruptions [2] [%]	MTD/RP2D dose (recommended dose for dose expansion) in the combination ([2]; orally twice daily (BID), with romidepsin) [mg]	Patients with drug interruptions [2] [%]	Patients with dose reductions [2] [%]	Absorption [3]	CYP3A4 inhibition (CYP3A4)	Discontinuation rates due to adverse events, single agent studies (patients)	MTD/RP2D dose (recommended dose for dose expansion) in the combination ([2]; intravenous, days 1, 8, 15 of 28-day cycle, with tenalisib) [mg/m^2]
CC[C@H](Nc1ncnc2[nH]cnc12)c1oc2ccccc2c(=O)c1-c1cccc(F)c1 [tenalisib]	20.0	12.1	800	60.6	27.3	rapidly absorbed	moderate inhibitors	–	–
C/C=C1\NC(=O)[C@H]2CSSCC/C=C/[C@H](CC(=O)N[C@H](C(C)C)C(=O)N2)OC(=O)[C@H](C(C)C)NC1=O [romidepsin, reference compound]	14	24.2	–	63.6	33.3	–	–	19-28%	14
